Laboratory results published in ChEMBL document CHEMBL3351615, “Design, synthesis and evaluation of novel HDAC inhibitors as potential antitumor agents” (Bioorg Med Chem Lett, 2014).

Columns and labels:
[1] = target: Histone deacetylase 1 (Homo sapiens, UniProt Q13547); experiment: Inhibition of HDAC1 (unknown origin) using Boc-Lys(Ac)-AMC as substrate by fluorescence assay
[2] = cells; type: functional; settings: Homo sapiens, HCT-116, 72 h
Description: Growth inhibition of human HCT116 cells after 72 hrs by CellTiter Glo assay

[3] = cells; type: functional; settings: Homo sapiens, PC-3, 72 h
Description: Growth inhibition of human PC3 cells after 72 hrs by CellTiter Glo assay

[4] = cells; type: functional; settings: Homo sapiens, HL-60, 72 h
Description: Growth inhibition of human HL60 cells after 72 hrs by CellTiter Glo assay

[5] = tested on: Mus musculus; experiment: Toxicity in human HCT116 cells xenografted mouse at 200 mg/kg, po qd measured after 10 days relative to vehicle-treated control; type: organism-based, HCT-116; parameters: dose 200 mg/kg, route oral; settings: in vivo, 240 h
[6] = Antitumor activity against human HCT116 cells xenografted in mouse assessed as tumor growth reduction at 50 mg/kg, po qd for 3 weeks relative to vehicle-treated control; type: functional; settings: HCT-116, 504 h, read-out: TGI
[7] = target: hERG (KCNH2) (Homo sapiens, UniProt Q12809); experiment: Inhibition of human ERG at 10 uM
Chain of hERG (KCNH2) (Q12809 whole entry): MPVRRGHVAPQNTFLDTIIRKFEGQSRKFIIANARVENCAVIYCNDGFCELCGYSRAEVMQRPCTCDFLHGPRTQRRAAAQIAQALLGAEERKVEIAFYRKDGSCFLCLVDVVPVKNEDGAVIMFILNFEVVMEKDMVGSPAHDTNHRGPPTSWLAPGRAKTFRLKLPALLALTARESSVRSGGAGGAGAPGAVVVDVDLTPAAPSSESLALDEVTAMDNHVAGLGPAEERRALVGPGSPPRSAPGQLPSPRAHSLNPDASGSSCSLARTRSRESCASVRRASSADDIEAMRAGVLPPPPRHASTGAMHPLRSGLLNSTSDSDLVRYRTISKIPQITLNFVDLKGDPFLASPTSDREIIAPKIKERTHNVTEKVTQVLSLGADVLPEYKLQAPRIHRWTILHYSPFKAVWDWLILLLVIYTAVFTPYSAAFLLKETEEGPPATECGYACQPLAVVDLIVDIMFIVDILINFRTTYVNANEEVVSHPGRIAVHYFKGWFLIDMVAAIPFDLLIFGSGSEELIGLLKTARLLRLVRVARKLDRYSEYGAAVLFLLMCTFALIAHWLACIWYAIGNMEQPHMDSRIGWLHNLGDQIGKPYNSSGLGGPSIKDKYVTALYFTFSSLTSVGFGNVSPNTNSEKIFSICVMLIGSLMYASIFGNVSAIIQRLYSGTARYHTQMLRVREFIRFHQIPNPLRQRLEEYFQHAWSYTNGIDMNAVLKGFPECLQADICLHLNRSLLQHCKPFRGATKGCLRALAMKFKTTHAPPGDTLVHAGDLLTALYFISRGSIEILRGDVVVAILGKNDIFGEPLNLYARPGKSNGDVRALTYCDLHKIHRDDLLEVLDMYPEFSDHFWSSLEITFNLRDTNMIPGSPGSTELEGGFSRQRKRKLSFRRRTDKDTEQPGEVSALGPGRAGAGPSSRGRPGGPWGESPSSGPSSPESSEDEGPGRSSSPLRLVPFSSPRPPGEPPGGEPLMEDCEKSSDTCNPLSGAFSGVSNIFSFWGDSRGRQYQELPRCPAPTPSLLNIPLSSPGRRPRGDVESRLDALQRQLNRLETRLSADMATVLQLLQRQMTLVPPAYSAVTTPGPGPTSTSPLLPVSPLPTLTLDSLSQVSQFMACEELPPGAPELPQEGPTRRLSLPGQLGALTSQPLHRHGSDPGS

[8] = Antitumor activity against human HCT116 cells xenografted in mouse assessed as tumor growth reduction at 200 mg/kg, po qd measured after 10 days relative to vehicle-treated control; type: functional; settings: HCT-116, 240 h, read-out: TGI
[9] = Antitumor activity against human HCT116 cells xenografted in mouse assessed as tumor growth reduction at 75 mg/kg, po qd as intermittent dosing schedule with 3 days on plus 3 days off for 3 weeks relative to vehicle-treated control; type: functional; settings: HCT-116, read-out: TGI
[10] = tested on: HCT-116; experiment: Ratio of vorinostat IC50 to compound IC50 for human HCT116 cells after 72 hrs by CellTiter Glo assay; type: functional
[11] = tested on: Mus musculus; experiment: Toxicity in human HCT116 cells xenografted mouse assessed as body weight loss at 50 mg/kg, po qd as intermittent dosing schedule with 3 days on plus 3 days off for 3 weeks relative to vehicle-treated control; type: organism-based, HCT-116; parameters: dose 50 mg/kg, route oral; settings: in vivo
[12] = tested on: Mus musculus; experiment: Toxicity in human HCT116 cells xenografted mouse assessed as body weight loss at 50 mg/kg, po qd for 3 weeks relative to vehicle-treated control; type: organism-based, HCT-116; parameters: dose 50 mg/kg, route oral; settings: in vivo, 504 h

Chain of Histone deacetylase 1 (Q13547 whole entry): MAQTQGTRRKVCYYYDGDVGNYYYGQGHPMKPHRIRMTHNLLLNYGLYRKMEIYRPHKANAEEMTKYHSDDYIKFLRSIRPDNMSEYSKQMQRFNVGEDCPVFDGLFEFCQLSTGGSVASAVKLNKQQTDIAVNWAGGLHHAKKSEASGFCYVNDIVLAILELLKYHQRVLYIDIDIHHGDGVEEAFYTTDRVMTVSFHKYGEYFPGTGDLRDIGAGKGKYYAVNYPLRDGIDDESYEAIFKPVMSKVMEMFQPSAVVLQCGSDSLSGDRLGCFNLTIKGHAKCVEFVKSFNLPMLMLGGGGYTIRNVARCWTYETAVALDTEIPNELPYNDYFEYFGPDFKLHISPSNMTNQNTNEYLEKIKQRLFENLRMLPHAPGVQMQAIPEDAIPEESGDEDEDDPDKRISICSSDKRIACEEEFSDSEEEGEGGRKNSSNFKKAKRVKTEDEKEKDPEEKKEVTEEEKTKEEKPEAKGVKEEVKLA

IC50 [1] | Structure (SMILES) | GI50 [2] | further results
182 nM | O=C(NO)c1ccc(N2CCN(c3cccnc3)C2=O)cc1 | – | –
152 nM | O=C(NO)c1ccc(N2CCN(c3cnc4ccccc4c3)C2=O)cc1 | – | –
17 nM | O=C(NO)c1ccc(N2CCN(Cc3ccccc3)C2=O)cc1 | 850 nM | –
21 nM | O=C(NO)c1ccc(N2CCN(Cc3ccc(F)cc3)C2=O)cc1 | – | –
12 nM | COc1ccc(CN2CCN(c3ccc(C(=O)NO)cc3)C2=O)cc1 | 470 nM | –
80 nM | O=C(NO)c1ccc(N2CCN(Cc3ccc(C(F)(F)F)cc3)C2=O)cc1 | – | –
41 nM | O=C(NO)c1ccc(N2CCN(Cc3ccncc3)C2=O)cc1 | – | –
42 nM | O=C(NO)c1ccc(N2CCN(Cc3cccnc3)C2=O)cc1 | – | –
9.5 nM | CN(C)c1cccc(CN2CCN(c3ccc(C(=O)NO)cc3)C2=O)c1 | 330 nM | GI50 [3]: 430 nM; GI50 [4]: 440 nM
23 nM | CN(C)Cc1cccc(CN2CCN(c3ccc(C(=O)NO)cc3)C2=O)c1 | – | –
25 nM | CN(C)Cc1ccc(CN2CCN(c3ccc(C(=O)NO)cc3)C2=O)cc1 | – | –
9.5 nM | O=C(NO)c1ccc(N2CCN(Cc3cccc4ccccc34)C2=O)cc1 | – | –
5.4 nM | O=C(NO)c1ccc(N2CCN(Cc3ccc4ccccc4c3)C2=O)cc1 | 210 nM | GI50 [3]: 380 nM; GI50 [4]: 360 nM
5.4 nM | O=C(NO)c1ccc(N2CCN(Cc3cccc4ncccc34)C2=O)cc1 | 270 nM | GI50 [3]: 340 nM; GI50 [4]: 250 nM
2.7 nM | CCN(CC)Cc1ccc2cc(CN3CCN(c4ccc(C(=O)NO)cc4)C3=O)ccc2c1 | 110 nM | Activity [5]: Toxic; inhibition in vivo at 50 mg/kg [6]: 45%; inhibition at 10 µM [7]: 27%; GI50 [3]: 100 nM; inhibition in vivo at 200 mg/kg [8]: 50%; inhibition in vivo at 75 mg/kg [9]: 54%; Ratio IC50 [10]: 6; Activity [11]: < 15%; Activity [12]: < 15%; GI50 [4]: 86 nM
13 nM | O=C(NO)c1ccc(N2CCN(CCc3ccccc3)C2=O)cc1 | 650 nM | –
4 nM | Cn1cc(CCN2CCN(c3ccc(C(=O)NO)cc3)C2=O)c2ccccc21 | 240 nM | GI50 [3]: 210 nM; GI50 [4]: 480 nM
250 nM | CC(C)CN1CCN(c2ccc(C(=O)NO)cc2)C1=O | – | –
125 nM | O=C(NO)c1ccc(N2CCN(CCCN3CCOCC3)C2=O)cc1 | – | –
114 nM | O=C(NO)c1ccc(N2CCN(CCCN3CCCC3)C2=O)cc1 | – | –
